The results in this text go back to patent publication US7691889B2, “Antimycobacterial compounds” (Lupin Limited, priority 2002, dated 2010).

This experiment concerns M. tuberculosis clinical isolates, resistant. Briefly: microbe, parasite or virus in culture. The format is cell-based, Mycobacterium tuberculosis. The note with it: for MIC against Clinical isolates Resistant: Table I, agar dilution; for MIC: Mycobacterium tuberculosis, read-out: MIC against Clinical isolates Resistant.

Values after ≈ are worked out from the molar mass of the structure shown.

Consider `O=C(CCC(=O)c1cccs1)NC[C@H]1CN(c2ccc([N+]3([O-])CCOCC3)c(F)c2)C(=O)O1` [Compound 31, (S)-N-[[3-(3-fluoro-4-morpholinylphenyl)-2-oxo-5-oxazolidinyl]methyl]-4-oxo-4-(2-thienyl)butanamide-N-oxide], for which the “MIC against Clinical isolates Resistant” value lay within 1 to 4 µg/mL. In the case of `Cc1ccc(C(=O)CCC(=O)NC[C@H]2CN(c3ccc(N4CCOCC4)c(F)c3)C(=O)O2)cc1` [Compound 2, (S)-N-[[3-(3-fluoro-4-morpholinylphenyl)-2-oxo-5-oxazolidinyl]methyl]-4-(4-methylphenyl)-4-oxobutanamide], the “MIC against Clinical isolates Resistant” value stood at 8 µg/mL (≈ 17 µM). Consider `O=C(CCC(=O)c1cccs1)NC[C@H]1CN(c2ccc(-c3nc[nH]n3)c(F)c2)C(=O)O1` [Compound 47, (S)-N-[[3-(3-fluoro-4-(1,2,4-triazolyl)phenyl)-2-oxo-5-oxazolidinyl]methyl]-4-oxo-4-(2-thienyl)butanamide], for which the MIC was 2 to 4 µg/mL (≈ 4.51 to 9.02 µM).

Regarding `Cc1ccc(C(=O)CCC(=O)NC[C@H]2CN(c3ccc(-n4nnc5ccccc54)c(F)c3)C(=O)O2)c(C)c1` [Compound 27, (S)-N-[[3-(3-fluoro-4-benzotriazolylphenyl)-2-oxo-5-oxazolidinyl]methyl]-4-(2,4-dimethylphenyl)-4-oxobutanamide], the “MIC against Clinical isolates Resistant” value is more than 16 µg/mL.

With `O=C(CCC(=O)c1ccc2ccccc2c1)NC[C@H]1CN(c2ccc([N+]3([O-])CCOCC3)c(F)c2)C(=O)O1` [Compound 30, (S)-N-[[3-(3-fluoro-4-morpholinylphenyl)-2-oxo-5-oxazolidinyl]methyl]-4-(4-2-naphthyl)-4-oxobutanamide-N-oxide], the “MIC against Clinical isolates Resistant” value is 0.5 to 2 µg/mL. Also, for the setting “Table II”, the “MIC M. tuberculosis Resistant” value was in the range of 0.50 to 2.0 µg/mL. Regarding `O=C(CCC(=O)c1ccccc1)NC[C@H]1CN(c2ccc(N3CCOCC3)c(F)c2)C(=O)O1` [Compound 1, (S)-N-[[3-(3-fluoro-4-morpholinylphenyl)-2-oxo-5-oxazolidinyl]methyl]-4-oxo-4-phenylbutanamide], the “MIC against Clinical isolates Resistant” value was more than 16 µg/mL. As for “(S)-N-[[3-(3-fluoro-4-morpholinylphenyl)-2-oxo-5-oxazolidinyl]methyl]-4-[4-(2′,2′-dimethyl-4-ethylphenyl)-4-oxobutanamide [Compound 20]”, the “MIC against Clinical isolates Resistant” value lay within 2 to 4 µg/mL. On the same count and under the same terms, under `O=C(CCC(=O)c1ccc2ccccc2c1)NC[C@H]1CN(c2ccc(N3CCOCC3)c(F)c2)C(=O)O1` [Compound 16, (S)-N-[[3-(3-fluoro-4-morpholinylphenyl)-2-oxo-5-oxazolidinyl]methyl]-4-(4-2-naphthyl)-4-oxobutanamide] stands 0.5(>16) μg/ml. On the same count and under the same terms, under `COc1ccc(C(=O)CCC(=O)NC[C@H]2CN(c3ccc(N4CCOCC4)c(F)c3)C(=O)O2)cc1` [Compound 13, (S)-N-[[3-(3-fluoro-4-morpholinylphenyl)-2-oxo-5-oxazolidinyl]methyl]-4-(4-methoxyphenyl)-4-oxobutanamide] stands 2 to 4 µg/mL. For the compound `CC(=O)Nc1ccc(C(=O)CCC(=O)NC[C@H]2CN(c3ccc(-c4nc[nH]n4)c(F)c3)C(=O)O2)cc1` [Compound 50, (S)-N-[[3-(3-fluoro-4-(1,2,4-triazolyl)phenyl)-2-oxo-5-oxazolidinyl]methyl]-4-(4-acetamidophenyl)-4-oxobutanamide], the MIC lay in the range of 2 to 4 µg/mL (≈ 4.04 to 8.09 µM).

On to `CC(C)Cc1ccc(C(=O)CCC(=O)NC[C@H]2CN(c3ccc([N+]4([O-])CCOCC4)c(F)c3)C(=O)O2)cc1` [Compound 33], for which the “MIC against Clinical isolates Resistant” value is 0.5 to 2 µg/mL.

For the compound `O=C(CCC(=O)c1cccs1)NC[C@H]1CN(c2ccc(N3CCOCC3)c(F)c2)C(=O)O1` [Compound 19, (S)-N-[[3-(3-fluoro-4-morpholinylphenyl)-2-oxo-5-oxazolidinyl]methyl]-4-oxo-4-(2-thienyl)butanamide], the “MIC against Clinical isolates Resistant” value turned out to be 2 µg/mL (≈ 4.33 µM). Regarding “(S)-N-[[3-(3-fluoro-4-(1,2,4-triazolyl)phenyl)-2-oxo-5-oxazolidinyl]methyl]-4-oxo-4-phenylbutanamide [Compound 40]”, the “MIC against Clinical isolates Resistant” value fell in the range of 1 to 2 µg/mL. On the same count and under the same terms, with `O=C(C=CC(=O)c1ccccc1)NC[C@H]1CN(c2ccc(N3CCOCC3)c(F)c2)C(=O)O1` [Compound 34, (S)-N-[[3-(3-fluoro-4-morpholinylphenyl)-2-oxo-5-oxazolidinyl]methyl]-4-oxo-4-phenylbut-2-enamide] the figure was more than 16 µg/mL. The same measure, in the same setting: with “(S)-N-[[3-(3-fluoro-4-(1,2,4-triazolyl)phenyl)-2-oxo-5-oxazolidinyl]methyl]-4-(2′,2′-dimethyl-4-ethylphenyl)-4-oxobutanamide [Compound 45]” the figure was 2 to 4 µg/mL. As to `O=C(CCC(=O)c1ccc(Cl)cc1)NC[C@H]1CN(c2ccc(-c3nc[nH]n3)c(F)c2)C(=O)O1` [Compound 49, (S)-N-[[3-(3-fluoro-4-(1,2,4-triazolyl)phenyl)-2-oxo-5-oxazolidinyl]methyl]-4-(4-chlorophenyl)-4-oxobutanamide], the MIC was 4 to 16 µg/mL (≈ 8.48 to 33.9 µM). Regarding `O=C(CCC(=O)c1cccs1)NC[C@H]1CN(c2ccc(N3CCCC3)c(F)c2)C(=O)O1` [Compound 28, (S)-N-[[3-(3-fluoro-4-pyrrolidinylphenyl)-2-oxo-5-oxazolidinyl]methyl]-4-oxo-4-(2-thienyl)butanamide], the “MIC against Clinical isolates Resistant” value was in the range of 2 to 8 µg/mL. For the compound `Cc1ccc(C(=O)CCC(=O)NC[C@H]2CN(c3ccc(-c4nc[nH]n4)c(F)c3)C(=O)O2)c(C)c1` [Compound 43, (S)-N-[[3-(3-fluoro-4-(1,2,4-triazolyl)phenyl)-2-oxo-5-oxazolidinyl]methyl]-4-(2,4-dimethylphenyl)-4-oxobutanamide], the MIC lay within 1 to 2 µg/mL (≈ 2.15 to 4.3 µM). In the case of `CC(=O)NC[C@H]1CN(c2ccc(N3CCOCC3)c(F)c2)C(=O)O1` [Linezolid, (S)-N-[[3-[3-fluoro-4-(4-morpholinyl)phenyl]-2-oxo-5-oxazolidin-yl]methyl]-acetamide, reference compound], the MIC lay within 1 to 2 µg/mL (≈ 2.96 to 5.93 µM). As for `O=C(CCC(=O)c1ccc2ccccc2c1)NC[C@H]1CN(c2ccc(N3CCCC3)c(F)c2)C(=O)O1` [Compound 57, (S)-N-[[3-(3-fluoro-4-pyrrolidinylphenyl)-2-oxo-5-oxazolidinyl]methyl]-4-(2-naphthyl)-4-oxobutanamide], the “MIC against Clinical isolates Resistant” value was more than 16 µg/mL. Same read-out and setting: under `Cc1ccc(C(=S)CCC(=O)NC[C@H]2CN(c3ccc(N4CCOCC4)c(F)c3)C(=O)O2)cc1` [Compound 15, (S)-N-[[3-(3-fluoro-4-morpholinylphenyl)-2-oxo-5-oxazolidinyl]methyl]-4-(4-methylphenyl)-4-thiooxobutanamide] stands more than 16 µg/mL. As for `O=C(CCC(=O)c1ccc(Cl)cc1)NC[C@H]1CN(c2ccc(N3CCCCC3)c(F)c2)C(=O)O1` [Compound 36, (S)-N-[[3-(3-fluoro-4-piperidylphenyl)-2-oxo-5-oxazolidinyl]methyl]-4-(4-chlorophenyl)-4-oxobutanamide], the “MIC against Clinical isolates Resistant” value lay within 4 to 8 µg/mL. Still for that read-out and setting: under `CSc1ccc(C(=O)CCC(=O)NC[C@H]2CN(c3ccc(-n4cncn4)c(F)c3)C(=O)O2)cc1` [Compound 44, (S)-N-[[3-(3-fluoro-4-(1,2,4-triazolyl)phenyl)-2-oxo-5-oxazolidinyl]methyl]-4-oxo-4-(4-thiomethylphenyl)butanamide] stands 1 to 4 µg/mL.

Regarding `CSc1ccc(C(=O)CCC(=O)NC[C@H]2CN(c3ccc(N4CCOCC4)c(F)c3)C(=O)O2)cc1` [Compound 21, (S)-N-[[3-(3-fluoro-4-morpholinylphenyl)-2-oxo-5-oxazolidinyl]methyl]-4-oxo-4-(4-thiomethyl)phenylbutanamide], the “MIC against Clinical isolates Resistant” value was 0.5(>16) μg/ml. Consider `CCCc1ccc(C(=O)CCC(=O)NC[C@H]2CN(c3ccc(-c4nc[nH]n4)c(F)c3)C(=O)O2)c(C)c1` [Compound 46, (S)-N-[[3-(3-fluoro-4-(1,2,4-triazolyl)phenyl)-2-oxo-5-oxazolidinyl]methyl]-4-(2′-methyl-4-propylphenyl)-4-oxobutanamide], for which the MIC lay in the range of 2 to 8 µg/mL (≈ 4.05 to 16.2 µM). `O=C(CCC(=O)c1ccc2ccccc2c1)NC[C@H]1CN(c2ccc(-c3nc[nH]n3)c(F)c2)C(=O)O1` [Compound 48, (S)-N-[[3-(3-fluoro-4-(1,2,4-triazolyl)phenyl)-2-oxo-5-oxazolidinyl]methyl]-4-(2-naphthyl)-4-oxobutanamide]: the MIC is 2 to 8 µg/mL (≈ 4.1 to 16.4 µM). For the compound `CSc1ccc(C(=O)CCC(=O)NC[C@H]2CN(c3ccc(N4CCCC4)c(F)c3)C(=O)O2)cc1` [Compound 56, (S)-N-[[3-(3-fluoro-4-pyrrolidinylphenyl)-2-oxo-5-oxazolidinyl]methyl]-4-oxo-4-(4-thiomethylphenyl)butanamide], the “MIC against Clinical isolates Resistant” value was more than 16 µg/mL. For the compound `CC(=O)Nc1ccc(C(=O)CCC(=O)NC[C@H]2CN(c3ccc(N4CCCCC4)c(F)c3)C(=O)O2)cc1` [Compound 54, (S)-N-[[3-(3-fluoro-4-piperidylphenyl)-2-oxo-5-oxazolidinyl]methyl]-4-(4-acetamidophenyl)-4-oxobutanamide], the “MIC against Clinical isolates Resistant” value was more than 16 µg/mL. As to `O=C(C=CC(=O)c1ccccc1)NC[C@H]1CN(c2ccc(N3CCCCC3)c(F)c2)C(=O)O1` [Compound 55, (S)-N-[[3-(3-fluoro-4-piperidylphenyl)-2-oxo-5-oxazolidinyl]methyl]-4-oxo-4-phenylbut-2-enamide], the “MIC against Clinical isolates Resistant” value is more than 16 µg/mL. On the same count and under the same terms, under `COc1ccc(C(=O)CCC(=O)NC[C@H]2CN(c3ccc(N4CCCCC4)c(F)c3)C(=O)O2)cc1` [Compound 35, (S)-N-[[3-(3-fluoro-4-piperidylphenyl)-2-oxo-5-oxazolidinyl]methyl]-4-(4-methoxyphenyl)-4-oxobutanamide] stands 4 to 8 µg/mL; under `O=C(CCC(=O)c1ccc(Cl)cc1)NC[C@H]1CN(c2ccc(-n3nnc4ccccc43)c(F)c2)C(=O)O1` [Compound 39, (S)-N-[[3-(3-fluoro-4-benzotriazolylphenyl)-2-oxo-5-oxazolidinyl]methyl]-4-(4-chlorophenyl)-4-oxobutanamide], 2 to 8 µg/mL; under `CC(C)Cc1ccc(C(=O)CCC(=O)NC[C@H]2CN(c3ccc(N4CCOCC4)c(F)c3)C(=O)O2)cc1` [Compound 17], 0.5 to 1.0 µg/mL.
